For one compound, pA2 value results are on record in US6750214B2, “Quinoline and quinazoline compounds useful in therapy” (priority 1995, dated 2004).

The assay concerns human prostate. The assay is described as follows: Contractile responses of human prostate. To be noted: antagonist affinity estimate against (−)-noradrenaline contractions of human prostatic tissue strips; single antagonist concentration, incubated 2 hours. Here is the method: Contractile Responses of Human Prostate
Prostatic tissue was cut into longitudinal strips (approximately 3×2×10 mm) and suspended in organ baths under a resting tension of 1 g in Krebs Ringer bicarbonate of the following composition (mM): NaCl (119), KCl (4.7), CaCl2 (2.5), KH2PO4 (1.2), MgSO4 (1.2), NaHCO3 (25), glucose (11), and gassed with 95% O2/5% CO2. The solution also contained 10 mM cocaine and 10 mM corticosterone. Tissues were exposed to a sensitising dose of (−)-noradrenaline ([…]) and washed over a 45 minute period. Isometric contractions were obtained in response to cumulative additions of (−)-noradrenaline to obtain control curves in all tissues. A further curve was then generated in the presence or absence of antagonist (incubated for 2 hours). Antagonist affinity estimates (pA2) were determined using a single concentration of competing antagonist, pA2=−log [A]/(DR-1) where the dose ratio (DR), relative to corresponding controls, was produced by a single concentration of antagonist [A], assuming competitive antagonism and Schild regression close to unity.

On to `COc1cc2nc(N3CCCN(C(=O)N4C[C@H](O)[C@@H](O)C4)CC3)nc(N)c2c(-c2ccccc2)c1OC.Cl` [Example 17, 4-Amino-6,7-dimethoxy-2-{4-[1-(3S,4S-dihydroxypyrrolidine)carbonyl]-1,4-diazepan-1-yl}-5-phenylquinazoline hydrochloride], for which the pA2 value was 8.5.
